Values of other authors as cited in article PMC7984292 (Chemmedchem, 2020).
“And” between values parts separate entries of the source, which are not always exact repeats. Equal entries are not always repeated.

Assays:
[1] = not given; remark: listed apart in the source
[2] = target: hDAT (Homo sapiens, UniProt Q01959); settings: read-out: IC50 hDAT; oxo isomers; taken from reference
Sequence of hDAT (Q01959 whole entry): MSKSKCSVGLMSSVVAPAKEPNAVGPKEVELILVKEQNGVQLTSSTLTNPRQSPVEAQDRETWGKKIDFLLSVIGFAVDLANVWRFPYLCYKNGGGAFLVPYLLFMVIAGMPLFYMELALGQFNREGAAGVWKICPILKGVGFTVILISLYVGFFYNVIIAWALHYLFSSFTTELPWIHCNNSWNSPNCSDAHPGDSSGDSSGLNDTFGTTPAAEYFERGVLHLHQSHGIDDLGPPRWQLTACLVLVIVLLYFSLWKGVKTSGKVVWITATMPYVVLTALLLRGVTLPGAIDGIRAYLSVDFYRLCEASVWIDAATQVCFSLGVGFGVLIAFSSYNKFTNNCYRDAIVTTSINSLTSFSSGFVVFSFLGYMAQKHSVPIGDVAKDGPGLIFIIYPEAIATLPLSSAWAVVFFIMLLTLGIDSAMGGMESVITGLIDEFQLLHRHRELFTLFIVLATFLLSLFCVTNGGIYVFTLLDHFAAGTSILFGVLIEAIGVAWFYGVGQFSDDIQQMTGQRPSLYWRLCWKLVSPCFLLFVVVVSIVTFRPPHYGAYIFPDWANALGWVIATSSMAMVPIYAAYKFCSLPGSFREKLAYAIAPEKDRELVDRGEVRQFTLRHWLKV

O=C(O)CN(CCN(CC(=O)O)Cc1ccccc1O)Cc1ccccc1O [HBED]
log K GaL (stability constant for the Ga3+ complex): 38.51

COC(=O)[C@H]1[C@@H](OC(=O)c2ccccc2)C[C@@H]2CC[C@H]1N2C [cocaine 1, cocaine]
log D 7.4 ([1]; pH 7.4): 1.31±0.01 ^[22]

CN1[C@H]2CC[C@@H]1[C@@H](CN(CC[S-])CC[N-]CC[S-])[C@@H](c1ccc(Cl)cc1)C2.[O]=[99Tc+4] [TRODAT‐1 6]
log P ([1]; value in parentheses = log P, literature value): (0.29±0.04) ^[29] | IC50 [2]: 8.42 nM and 13.9 nM
